Patent US20220409692A1, “Systems Chemico-Pharmacology Drugs and Methods of Use” (The Medical College of Wisconsin, priority 2019, published 2022)
Peptide text beside a SMILES is read from it.

How the values were obtained:
[1] = test system: cultured endothelial cells; conditions: added to culture media; cited from earlier work
[2] = test system: hyperoxic neonatal rat pups; assay: Hyperoxia-induced BPD in neonatal rat pups: lung histology, cell counts and morphometrics; format: in vivo, Sprague-Dawley rat
Description: Since the number of neonatal rat pups per pregnant dam limits the number of experimental conditions that can be compared, we modified our standard experimental design protocol. The first experiment was designed to determine if hyperoxia increased BPD, while the second was designed to determine if inhibiting MPO oxidant production reduced BPD. At least three sets of neonatal pups from three different dams were used for each experiment. Pups were fed ad libitum from nursing dams. Pups were weighed and inspected daily in room air for less than ten minutes. Nursing dams were switched daily to avoid the impact of nutritional status. Experience has taught us that severity of hyperoxia-induced BPD is litter dependent. To minimize litter differences, we determined the effects of hyperoxia vs. normoxia on BPD in neonatal pups by mixing pups from the litters and randomly reallocating pups with nursing dams.
Immunohistochemistry and Immunocytochemistry: After cannulating the trachea with an Instech Solomon (20G) stainless steel feeding tube (Plymouth Meeting, Pa.), the lungs were inflated with 10% neutral buffered formalin at 25 cm-H2O (2.4 kPa) for 1 h. Lungs were removed after the trachea were securely tied with surgical silk to maintain the pressure, and perfusion fixed with an additional aliquot of 10% neutral buffered formalin for 24 h before paraffin embedding. Lung sections (5 μm) were mounted on SuperFrost plus-coated slides (Denville Scientific, Metuchen, N.J.). Slides were deparaffinized and sections stained with hematoxylin and eosin (H&E). Histology images were captured with a mounted digital camera using an Olympus IX 51 microscope and a 10× objective. Inflammatory cells, myeloid cells including neutrophils, monocytes, and macrophages, were stained with MPO antibody (1:200) overnight at 4° C. and HPR-conjugated anti-rabbit antibody (1:1000) at room temperature for one hour then visualized by diaminobenzidine to generate a dark-brown color. Blood vessels were stained with RECA-1 and visualized with horseradish-conjugated secondary antibody and diaminobenzidine. The average of three sections per pup, and five counts per section (15 counts/pup) was used for statistical analysis. Quantified data were obtained and entered into the record using predetermined codes by one of the coauthors who was not involved in taking the images.
Morphometric Analysis: The mean linear intercept (MLI), or chord length, was used as a method to estimate the volume-to-surface ratio of acinar airspaces whereas radial alveolar count (RAC) and secondary septa were investigated to study the complexity of lung structure (21). Ten equally spaced horizontal lines were drawn on each picture, and the number of intercepts through the alveolar wall was counted. MLI was obtained by the number of times the traverses are placed on the lung times the length of the traverse then divided by the sum of all the intercepts. For the RAC, a line from the center of the respiratory tract perpendicular to the nearest connective tissue septum was drawn, and alveoli intercepting with the line were counted. For measurement of secondary septa, elastin was stained with resorcin fuchsin and Van Gieson's solution.
Since the number of neonatal rat pups per pregnant dam limits the number of experimental conditions that can be compared, we modified our standard experimental protocol. The first study was designed to determine if hyperoxia increased BPD and caused a change in proteins of interest. Data from these studies can be found in on-line supplemental data. The second study was designed to determine if inhibiting MPO toxic oxidant production reduced BPD. At least three sets of neonatal pups from three different dams were used for each study. Pups were fed ad libitum from nursing dams. Pups were inspected daily starting on P1 and weighed starting on P3 in room air for less than ten minutes. Nursing dams were switched daily to avoid the impact of oxygen toxicity. […]

MPO = target: T1, MPO (Homo sapiens, UniProt P05164); assay: MPO oxidation of KYC to thiyl radical, ESR with DMPO; format: biochemical; conditions: MPO 120 nM, H2O2 50 μM, KYC 30 μM
T1 sequence (P05164 49-745): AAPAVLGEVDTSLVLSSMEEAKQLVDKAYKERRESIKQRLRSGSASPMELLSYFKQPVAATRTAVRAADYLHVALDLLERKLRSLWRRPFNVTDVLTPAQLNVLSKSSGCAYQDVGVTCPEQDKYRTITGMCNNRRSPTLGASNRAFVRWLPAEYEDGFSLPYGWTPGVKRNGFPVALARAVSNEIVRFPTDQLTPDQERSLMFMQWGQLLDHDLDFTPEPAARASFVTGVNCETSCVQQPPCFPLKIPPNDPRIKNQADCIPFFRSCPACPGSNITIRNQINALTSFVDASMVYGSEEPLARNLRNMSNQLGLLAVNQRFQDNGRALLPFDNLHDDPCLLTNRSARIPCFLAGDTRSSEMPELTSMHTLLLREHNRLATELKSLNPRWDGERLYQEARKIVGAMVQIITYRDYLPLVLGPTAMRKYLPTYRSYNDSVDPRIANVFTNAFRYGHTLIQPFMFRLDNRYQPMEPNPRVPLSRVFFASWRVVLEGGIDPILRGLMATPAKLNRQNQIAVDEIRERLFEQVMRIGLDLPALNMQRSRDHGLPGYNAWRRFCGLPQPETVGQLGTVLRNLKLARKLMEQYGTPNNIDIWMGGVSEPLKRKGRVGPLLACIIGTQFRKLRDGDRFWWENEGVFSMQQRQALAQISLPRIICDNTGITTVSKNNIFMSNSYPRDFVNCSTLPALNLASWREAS
Procedure: FIG. 30. MPO Oxidizes KYC to a KYC Thiyl Radical That Thiylates HMGB1. (A) ESR spectrum of KYC thiyl S°-DMPO generated by an MPO reaction mixture containing MPO (120 nM), H2O2 (50 μM) and KYC (30 μM). (B) Streptavidin-affinity blot of KYC thiylated HMGB1 and MPO in a split sample, one half treated neat and other half treated with DTT (100 mM) to reduce disulfide bonds.
This spectrum is similar to the spectrum of DMPO-S◯-YC generated when the dipeptide YC was added to an MPO reaction mixture containing DMPO [34].

[3] = hyperoxic pups, KYC vs PBS, P10

In the case of `CC(=O)N[C@@H](CCCCN)C(=O)N[C@@H](Cc1ccc(O)cc1)C(=O)N[C@@H](CS)C(N)=O` [KYC, N-acetyl lysyltyrosylcysteine amide] (Ac-Lys-Tyr-Cys-NH2), the “concentration with little to no effect on endothelial cell viability, apoptosis, necrosis, or mitochondrial function” value [1] is given as “up to 4000 μM”, the “RAC (radial alveolar count)” value ([2]; KYC-treated HOX group, P10, PBS-treated HOX 4.2±0.6) is given as 6.3±0.4 and the secondary septation ([2]; KYC-treated HOX group, P10, PBS-treated HOX 5.0±1.3) is given as 7.8±1.2 /HPF. The capillary count ([2]; KYC-treated HOX group, P10, PBS-treated HOX 5.2±1.0) was 9.7±3.0 /HPF, the “MLI (mean linear intercept)” value ([2]; KYC-treated HOX group, P10, PBS-treated HOX 95.9±9.1) was 74.1±4.7 μm and the “MPO-positive myeloid cell count” value ([2]; hyperoxia (O2>90%) pups, KYC 5 mg/kg twice per day i.p. P2-P10, lungs at P10, PBS 2.0±0.7) was 0.8±0.7 /HPF. For the same compound, the “reduction of myeloid cell recruitment (MPO+ myeloid cells)” value ([2]; hyperoxic lungs, KYC vs PBS, P10) was “approximately 50%”, the “decrease of MLI” value [2, 3] was “approximately 22%” and the “increase of RAC” value [2, 3] was “approximately 35%”. The “increase of blood vessel counts” value [2, 3] was roughly 92%, the “increase of secondary septa” value [2, 3] was roughly 55% and the “8-OH-dG immunofluorescence staining (oxidative DNA damage)” value ([2]; hyperoxic rat pups, KYC vs PBS) was “reduced 8-OH-dG in the nuclei of lung cells”. For the same compound, the “ESR spectrum of MPO reaction mixture with DMPO” value (MPO) was “four-line ESR spectrum corresponding to DMPO-SO-KYC”.
